Results taken from publication PMC3429062, “A Novel Member of the Trehalose Transporter Family Functions as an H^+-Dependent Trehalose Transporter in the Reabsorption of Trehalose in Malpighian Tubules” (Frontiers in Physiology, 2012).

Molecular target: T1, PvTRET1 (Polypedilum vanderplanki, UniProt A5LGM7)
T1 construct: gene Tret1; expressed from injected cRNA in Xenopus oocytes; construct described previously
T1 sequence (A5LGM7 1-504): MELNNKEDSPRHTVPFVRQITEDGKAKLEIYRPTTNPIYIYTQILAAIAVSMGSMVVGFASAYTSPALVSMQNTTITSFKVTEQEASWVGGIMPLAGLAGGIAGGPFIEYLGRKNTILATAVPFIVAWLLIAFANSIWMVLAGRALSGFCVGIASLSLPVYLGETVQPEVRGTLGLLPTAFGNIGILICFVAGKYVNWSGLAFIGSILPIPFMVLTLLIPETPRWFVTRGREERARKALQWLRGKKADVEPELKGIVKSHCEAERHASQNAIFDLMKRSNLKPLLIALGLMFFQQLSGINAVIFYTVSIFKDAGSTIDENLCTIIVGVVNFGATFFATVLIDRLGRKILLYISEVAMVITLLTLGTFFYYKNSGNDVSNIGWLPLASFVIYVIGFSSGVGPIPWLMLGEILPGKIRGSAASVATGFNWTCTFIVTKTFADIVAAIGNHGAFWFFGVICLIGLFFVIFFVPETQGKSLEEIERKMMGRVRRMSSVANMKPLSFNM
Assay: uptake into cRNA-injected Xenopus oocytes, HPLC
Type: cell-based
Conditions: 105 mM trehalose, various pH; transport

## OC[C@H]1O[C@H](O[C@H]2O[C@H](CO)[C@@H](O)[C@H](O)[C@H]2O)[C@H](O)[C@@H](O)[C@@H]1O [trehalose]
  trehalose uptake: Trehalose uptake into Xenopus oocytes via PvTRET1 at various pH values
